Assay results from patent US20260207632A1, “C[…] THERAPY” (KINGDOM THERAPEUTICS LIMITED, priority 2022, published 2026).

Assays:
rat VPA model of autism = experiment: Irritability-like behaviour: bottle-brush test (P30) in VPA rat model; assay type: in vivo; set-up: key to bottle brush irritability: +: improvement; Ø: no change
Protocol: (§1) In the first study, a sub-chronic 8-day dosing schedule was employed with the test compound CBD administered alone (10, 30 and 60 mg/kg, p.o. VPA/CBD; dose volume 5 ml/kg). Control animals were administered sterile saline (0.9% w/v, i.p.) in utero and the vehicle control (ethanol: Kolliphor HS-15:0.9% saline (1:1:18, v/v/v) p.o. VEH/VEH). The test compound and vehicle control were administered to the animals once daily for 7 days prior to, and once again on each day of behavioural assessment, 60 minutes prior to test which consisted of a battery of behavioural paradigms: P30 social play and bottle brush test, P31-32 open field exploratory behaviour. A reference positive control, the atypical antipsychotic risperidone (0.125 mg/kg, i.p., once per day for 8 days prior to and for duration of behavioural testing), was included in study one for comparison. Subsequent to behavioural analysis the effect of CBD on gastrointestinal permeability was evaluated four hours following oral administration of fluorescein isothiocyanate-labelled dextran measured in plasma on postnatal day 33. On postnatal day 34, 60 minutes post a final treatment with the test agents, animals were humanely euthanised and samples collected to evaluate inflammatory biomarkers, gastrointestinal function and histology. 5 In the second study, the sub-optimal dose of CBD (30 mg/kg, p.o.) was evaluated in combination with administration of THC at increasing concentration (0.75, 1.5 and 3 mg/kg, p.o. VPA/CBD+THC). Comparison was made to CBD administered alone at the sub-optimal and effective doses (30 and 60 mg/kg, p.o.) and to vehicle controls as per study one. Behavioural and gastrointestinal readouts were examined as per study one with terminal samples collected on the final day of the experiment.
To test irritability-like behaviour we employed the bottle-brush test modified for rats (Riittinen et al. 1986). Irritability-like behaviour was examined by measuring aggressive and defensive responses during the bottle-brush test carried out in juvenile animals immediately after play behaviour evaluation at P30. Irritability-like behaviour testing was performed under dark conditions with a red light and infrared camera recording (Kononoff et al., 2018). Testing consisted of 10 trials per rat in plastic cages (377×325×170 mm) with fresh bedding. During each trial, the rat was placed at the back of the cage. A bottle-brush was rotated toward the animal's whiskers (from the front of the cage). The brush was rotated around the whiskers of the rat for approximately 1 second. The brush was then rotated back to the front of the cage where it hung vertically for approximately 2 seconds, during which behavioural responses were recorded. An intertrial interval of 10 seconds was used, with each new trial started with the animal returned to the back of the cage. All testing was conducted in the morning, starting at 09.00 and concluded before 12.00.
Employing video analysis of the test the following were scored as aggressive responses: smelling the brush, biting the brush (during the initial phase of rotating the brush forward and back to the starting position), boxing the target, following the brush, exploring the brush (using paws or mouth to manipulate the brush without biting or boxing), mounting the brush, and delayed biting (during the 2 s that the brush hung at the starting position). The following were scored as defensive responses: escaping from the brush, digging, burying, jumping, climbing, vocalization, freezing, and grooming. Grooming and digging were additionally recorded during the 10 second intertrial intervals. Frequency and total time engaged in each behaviour and the sum of aggressive and defensive behaviours, referred to as the irritability score (Kononoff et al, 2018), were recorded.

[1] = system: colonic myeloperoxidase (MPO) activity; experiment: Colon myeloperoxidase (MPO) activity (P34) in distal colon, VPA rat model; assay type: in vivo; set-up: key to MPO activity: +: improvement; Ø: no change
Protocol: as §1
Five animals were chosen at random from each of the agreed treatment groups. Colon tissue was collected after euthanasia, weighted, flushed using cold sterile saline, and divided into three sections. One distal sample (approx. 1 cm×1 cm) was employed for intestinal myeloperoxidase (MPO) activity as described below by Berand Ltd. This sample was weighed and stored at −80° C. until use. A second proximal colon sample (approx. 1 cm×5 cm) was prepared for histological analysis by collection using the Swiss roll technique, placed into a cassette for paraffin embedding and preservation in 10% formalin solution for 24 hours. They were then transferred into 70% ethanol solution until paraffin embedded. These samples were shipped in 70% ethanol solution to Transpharmation Ltd at trinity College Dublin, Ireland for further processing. Haematoxylin & eosin staining was performed on the tissue before imaging. Five images were taken from each animal at 1.25× magnification. Using ImageJ the thickness of the muscle layer was measured at 5 locations throughout the section. A third medial section of colon (approx. 1 cm×2.5 cm) was frozen in liquid nitrogen for the analysis of cytokine expression and was shipped at minus 80° C. to Transpharmation Ltd at Trinity College Dublin, Ireland.
Analysis of colonic myeloperoxidase (MPO) activity employed a colorimetric activity assay kit (MAK068, Sigma-Aldrich, Ireland). Samples were analysed according to the manufacturer's instructions. Briefly, weighted distal colon tissues from all the groups were rapidly homogenized with 4 volumes of MPO Assay buffer and then centrifuged (13000 g×10 min, 4° C.) to obtain the supernatant. A 50 μl aliquot of each was added to a flat bottomed 96 well plate and brought to a final volume of 100 μl with MPO assay buffer. The MPO activity in milliunits/mL was determined using a 5,5′-dithiobis-(2-nitrobenzoic acid) (DTNB) probe to produce a TNB chromophore in a standard curve (0-50 nmol/mL). Standards and blank were prepared according to manufacturer's instruction. Absorbance was read at 412 nm at 60 minutes and expressed per mg of tissue sample. […]

[2] = cohort one, risperidone 0.125 mg/kg i.p.
[3] = study one, risperidone 0.125 mg/kg i.p.
[4] = cohort two, CBD 30 mg/kg, THC 0 mg/kg p.o.
[5] = cohort two, CBD 60 mg/kg, THC 0 mg/kg p.o.
[6] = study one, CBD 10 mg/kg, vs VPA/VEH
[7] = study one, CBD 60 mg/kg, vs VPA/VEH

Cc1nc2n(c(=O)c1CCN1CCC(c3noc4cc(F)ccc34)CC1)CCCC2 [Risperidone, risperidone]
bottle brush irritability (rat VPA model of autism; [2]): +
increase in aggressive responses, bottle brush (rat VPA model of autism; [3]): significantly reduced
irritability score (combined aggressive and defensive behaviours) (rat VPA model of autism; [3]): significantly reduced
MPO activity [1, 2]: Ø
increase in colonic MPO activity [1, 3]: without effect

C=C(C)[C@@H]1CCC(C)=C[C@H]1c1c(O)cc(CCCCC)cc1O [CBD, cannabidiol]
bottle brush irritability (rat VPA model of autism; cohort one, CBD 10 mg/kg p.o.): Ø
bottle brush irritability (rat VPA model of autism; cohort one, CBD 30 mg/kg p.o.): +
bottle brush irritability (rat VPA model of autism; cohort one, CBD 60 mg/kg p.o.): +
bottle brush irritability (rat VPA model of autism; [4]): Ø
bottle brush irritability (rat VPA model of autism; [5]): +
increase in aggressive responses, bottle brush (rat VPA model of autism; [6]): significantly reduced
irritability score (combined aggressive and defensive behaviours) (rat VPA model of autism; [6]): significantly reduced
irritability score (combined aggressive and defensive behaviours) (rat VPA model of autism; study one, CBD 30 mg/kg, vs VPA/VEH): significantly reduced
increase in aggressive responses, bottle brush (rat VPA model of autism; [7]): significantly reduced
irritability score (combined aggressive and defensive behaviours) (rat VPA model of autism; [7]): significantly reduced
increase in aggressive responses, bottle brush (rat VPA model of autism; study two, CBD 30 mg/kg): without effect
irritability score (combined aggressive and defensive behaviours) (rat VPA model of autism; study two, CBD 30 mg/kg): without effect
increase in aggressive responses, bottle brush (rat VPA model of autism; study two, CBD 60 mg/kg): significantly reduced
irritability score (combined aggressive and defensive behaviours) (rat VPA model of autism; study two, CBD 60 mg/kg): significantly reduced
MPO activity ([1]; cohort one, CBD 10 mg/kg p.o.): Ø
MPO activity ([1]; cohort one, CBD 30 mg/kg p.o.): Ø
MPO activity ([1]; cohort one, CBD 60 mg/kg p.o.): +
MPO activity [1, 4]: Ø
MPO activity [1, 5]: +
increase in colonic MPO activity [1, 7]: significantly prevented
increase in colonic MPO activity ([1]; study two, CBD 30 mg/kg): without significant effect
increase in colonic MPO activity ([1]; study two, CBD 60 mg/kg): significantly prevented
